Experimental data: US20240301409A1, “Chemically Modified Small Activating RNA” (RACTIGEN THERAPEUTICS, priority 2021, published 2024)

Tested on: T24 cells
Test: Cellular proliferation assay (CCK8) in T24 cells, alone and combined with Mitomycin C or valrubicin
Assay type: cell-based, human
In short: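 Cells transfected with saRNA RAG1-40-31 (0.1–50 nM) for 24 h, then Mitomycin C or valrubicin (1–10000 nM) added in paired concentrations; single-agent saRNA at 10 nM for 72 h. Viability by CCK8 absorbance at 450 nm after 1 h at 37 °C, as % of blank transfection control.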

RAG1-40-31: saRNA duplex: sense fCfCAACUCAUUCUCCAAG*U*C (SEQ ID NO 16); antisense U*A*fCfUfUGGAGAAfUGAGfUfUGG*fC*A (SEQ ID NO 12) (sense CCAACUCAUUCUCCAAGUC; antisense UACUUGGAGAAUGAGUUGGCA; 2'-F and phosphorothioate modifications; modified_base (1)..(2) (1,2)=2′-fluoro; modified_base (17)..(19) (17,18,19)=phosphorothioate (PS) backbone modification; modified_base (2)..(21) (2,3,19,20,21)=phosphorothioate (PS) backbone modification; modified_base (3)..(20) (3,4,5,12,16,17,20)=2′-fluoro)
Relative proliferation proportion of T24 cells (RAG1-40-31 0.1 nM + MMC 1 nM): 93.6% | Relative proliferation proportion of T24 cells (RAG1-40-31 0.1 nM + MMC 10 nM): 94.5% | Relative proliferation proportion of T24 cells (RAG1-40-31 0.1 nM + MMC 100 nM): 63.3% | Relative proliferation proportion of T24 cells (RAG1-40-31 0.1 nM + MMC 1000 nM): 17.6% | Relative proliferation proportion of T24 cells (RAG1-40-31 0.1 nM + MMC 10000 nM): 5.6% | Relative proliferation proportion of T24 cells (RAG1-40-31 0.1 nM + valrubicin 1 nm): 96.3% | Relative proliferation proportion of T24 cells (RAG1-40-31 0.1 nM + valrubicin 10 nm): 97.8% | Relative proliferation proportion of T24 cells (RAG1-40-31 0.1 nM + valrubicin 100 nm): 93.4% | Relative proliferation proportion of T24 cells (RAG1-40-31 0.1 nM + valrubicin 1000 nm): 59.6% | Relative proliferation proportion of T24 cells (RAG1-40-31 0.1 nM + valrubicin 10000 nm): 18.9% | Relative proliferation proportion of T24 cells (RAG1-40-31 0.1 nM, Control (no MMC)): 97.9% | Relative proliferation proportion of T24 cells (RAG1-40-31 0.1 nM, Control (no valrubicin)): 93.5% | Relative proliferation proportion of T24 cells (RAG1-40-31 0.5 nM + MMC 1 nM): 90.1% | Relative proliferation proportion of T24 cells (RAG1-40-31 0.5 nM + MMC 10 nM): 90.0% | Relative proliferation proportion of T24 cells (RAG1-40-31 0.5 nM + MMC 100 nM): 59.8% | Relative proliferation proportion of T24 cells (RAG1-40-31 0.5 nM + MMC 1000 nM): 16.8% | Relative proliferation proportion of T24 cells (RAG1-40-31 0.5 nM + MMC 10000 nM): 5.5% | Relative proliferation proportion of T24 cells (RAG1-40-31 0.5 nM + valrubicin 1 nm): 91.3% | Relative proliferation proportion of T24 cells (RAG1-40-31 0.5 nM + valrubicin 10 nm): 94.3% | Relative proliferation proportion of T24 cells (RAG1-40-31 0.5 nM + valrubicin 100 nm): 91.4% | Relative proliferation proportion of T24 cells (RAG1-40-31 0.5 nM + valrubicin 1000 nm): 51.8% | Relative proliferation proportion of T24 cells (RAG1-40-31 0.5 nM + valrubicin 10000 nm): 19.5% | Relative proliferation proportion of T24 cells (RAG1-40-31 0.5 nM, Control (no MMC)): 91.7% | Relative proliferation proportion of T24 cells (RAG1-40-31 0.5 nM, Control (no valrubicin)): 84.8% | Relative proliferation proportion of T24 cells (RAG1-40-31 1 nM + MMC 1 nM): 81.9% | Relative proliferation proportion of T24 cells (RAG1-40-31 1 nM + MMC 10 nM): 78.2% | Relative proliferation proportion of T24 cells (RAG1-40-31 1 nM + MMC 100 nM): 55.6% | Relative proliferation proportion of T24 cells (RAG1-40-31 1 nM + MMC 1000 nM): 14.7% | Relative proliferation proportion of T24 cells (RAG1-40-31 1 nM + MMC 10000 nM): 5.4% | Relative proliferation proportion of T24 cells (RAG1-40-31 1 nM + valrubicin 1 nm): 76.0% | Relative proliferation proportion of T24 cells (RAG1-40-31 1 nM + valrubicin 10 nm): 71.3% | Relative proliferation proportion of T24 cells (RAG1-40-31 1 nM + valrubicin 100 nm): 67.6% | Relative proliferation proportion of T24 cells (RAG1-40-31 1 nM + valrubicin 1000 nm): 49.6% | Relative proliferation proportion of T24 cells (RAG1-40-31 1 nM + valrubicin 10000 nm): 16.6% | Relative proliferation proportion of T24 cells (RAG1-40-31 1 nM, Control (no MMC)): 85.9% | Relative proliferation proportion of T24 cells (RAG1-40-31 1 nM, Control (no valrubicin)): 79.7% | Relative proliferation proportion of T24 cells (RAG1-40-31 5 nM + MMC 1 nM): 37.4% | Relative proliferation proportion of T24 cells (RAG1-40-31 5 nM + MMC 10 nM): 36.3% | Relative proliferation proportion of T24 cells (RAG1-40-31 5 nM + MMC 100 nM): 26.0% | Relative proliferation proportion of T24 cells (RAG1-40-31 5 nM + MMC 1000 nM): 7.7% | Relative proliferation proportion of T24 cells (RAG1-40-31 5 nM + MMC 10000 nM): 3.1% | Relative proliferation proportion of T24 cells (RAG1-40-31 5 nM + valrubicin 1 nm): 37.2% | Relative proliferation proportion of T24 cells (RAG1-40-31 5 nM + valrubicin 10 nm): 33.3% | Relative proliferation proportion of T24 cells (RAG1-40-31 5 nM + valrubicin 100 nm): 42.1% | Relative proliferation proportion of T24 cells (RAG1-40-31 5 nM + valrubicin 1000 nm): 25.7% | Relative proliferation proportion of T24 cells (RAG1-40-31 5 nM + valrubicin 10000 nm): 8.0% | Relative proliferation proportion of T24 cells (RAG1-40-31 5 nM, Control (no MMC)): 42.1% | Relative proliferation proportion of T24 cells (RAG1-40-31 5 nM, Control (no valrubicin)): 38.5% | Relative proliferation proportion of T24 cells (RAG1-40-31 10 nM + MMC 1 nM): 19.8% | Relative proliferation proportion of T24 cells (RAG1-40-31 10 nM + MMC 10 nM): 27.0% | Relative proliferation proportion of T24 cells (RAG1-40-31 10 nM + MMC 100 nM): 16.7% | Relative proliferation proportion of T24 cells (RAG1-40-31 10 nM + MMC 1000 nM): 5.3% | Relative proliferation proportion of T24 cells (RAG1-40-31 10 nM + MMC 10000 nM): 2.5% | Relative proliferation proportion of T24 cells (RAG1-40-31 10 nM + valrubicin 1 nm): 27.2% | Relative proliferation proportion of T24 cells (RAG1-40-31 10 nM + valrubicin 10 nm): 23.3% | Relative proliferation proportion of T24 cells (RAG1-40-31 10 nM + valrubicin 100 nm): 26.9% | Relative proliferation proportion of T24 cells (RAG1-40-31 10 nM + valrubicin 1000 nm): 21.7% | Relative proliferation proportion of T24 cells (RAG1-40-31 10 nM + valrubicin 10000 nm): 5.1% | Relative proliferation proportion of T24 cells (RAG1-40-31 10 nM, Control (no MMC)): 22.0% | Relative proliferation proportion of T24 cells (RAG1-40-31 10 nM, Control (no valrubicin)): 23.9% | Relative proliferation proportion of T24 cells (RAG1-40-31 25 nM + MMC 1 nM): 15.4% | Relative proliferation proportion of T24 cells (RAG1-40-31 25 nM + MMC 10 nM): 20.9% | Relative proliferation proportion of T24 cells (RAG1-40-31 25 nM + MMC 100 nM): 12.4% | Relative proliferation proportion of T24 cells (RAG1-40-31 25 nM + MMC 1000 nM): 4.1% | Relative proliferation proportion of T24 cells (RAG1-40-31 25 nM + MMC 10000 nM): 1.9% | Relative proliferation proportion of T24 cells (RAG1-40-31 25 nM + valrubicin 1 nm): 16.5% | Relative proliferation proportion of T24 cells (RAG1-40-31 25 nM + valrubicin 10 nm): 20.4% | Relative proliferation proportion of T24 cells (RAG1-40-31 25 nM + valrubicin 100 nm): 19.5% | Relative proliferation proportion of T24 cells (RAG1-40-31 25 nM + valrubicin 1000 nm): 13.2% | Relative proliferation proportion of T24 cells (RAG1-40-31 25 nM + valrubicin 10000 nm): 3.4% | Relative proliferation proportion of T24 cells (RAG1-40-31 25 nM, Control (no MMC)): 13.6% | Relative proliferation proportion of T24 cells (RAG1-40-31 25 nM, Control (no valrubicin)): 15.1% | Relative proliferation proportion of T24 cells (RAG1-40-31 50 nM + MMC 1 nM): 20.1% | Relative proliferation proportion of T24 cells (RAG1-40-31 50 nM + MMC 10 nM): 19.8% | Relative proliferation proportion of T24 cells (RAG1-40-31 50 nM + MMC 100 nM): 10.8% | Relative proliferation proportion of T24 cells (RAG1-40-31 50 nM + MMC 1000 nM): 4.2% | Relative proliferation proportion of T24 cells (RAG1-40-31 50 nM + MMC 10000 nM): 2.1% | Relative proliferation proportion of T24 cells (RAG1-40-31 50 nM + valrubicin 1 nm): 18.4% | Relative proliferation proportion of T24 cells (RAG1-40-31 50 nM + valrubicin 10 nm): 18.8% | Relative proliferation proportion of T24 cells (RAG1-40-31 50 nM + valrubicin 100 nm): 18.7%
